In publication PMC4462585, “Synthesis and Biological Evaluation of 3-Alkyl-1,5-Diaryl-1H-Pyrazoles as Rigid Analogues of Combretastatin A-4 with Potent Antiproliferative Activity” (PLoS ONE, 2015):

Key:
[1] = system: pulmonary adenocarcinoma cell line A549; assay: MTT antiproliferative assay, A549; type: cell-based; conditions: Homo sapiens, 72 h drug exposure, triplicate, read-out: Antiproliferative activity (IC50 ± SD) A549
Source text: (§1) Pulmonary adenocarcinoma cell lines (A549) and gastric adenocarcinoma cell lines (SGC-7901) were provided as gifts (purchased from the Cell Resource Center of Shanghai Institutes for Biological Sciences) from the China-Japan Research Institute of Medical and Pharmaceutical Sciences, Shenyang Pharmaceutical University. Fibrosarcoma cell lines (HT-1080) were purchased from the Cell Resource Center of Shanghai Institutes for Biological Sciences. All cells were maintained in DMEM containing 1% antibiotics (100 units of penicillin and […] per mL in 0.9% normal saline) and 10% foetal bovine serum in a humidified atmosphere containing 5% CO2 at 37°C.
(§2) Antiproliferative activities of CA-4 and the target compounds were measured using a colourimetric assay using 3-(4,5-dimethylthiazol-2yl-)-2,5-diphenyltetrazolium bromide (MTT). Approximately 3 × 10^4 cells were seeded in a 96-well plate. After 24 h of incubation at 37°C, cells were exposed to compounds of differing concentrations (0.0008 μg/mL, 0.004 μg/mL, 0.02 μg/mL, 0.10 μg/mL, 0.50 μg/mL, 2.5 μg/mL, 12.5 μg/mL, 62.5 μg/mL) for 72 h. After treatment, cells were washed with 1X PBS followed by addition of 100 μL of 0.05% MTT reagent to each well, followed by incubation for 4 h at 37°C. After incubation, the supernatant from each well was carefully removed and the formazan crystals were dissolved in 100 μL of DMSO. The colour density was measured spectrophotometrically at 490 nm using a microplate reader (SpectraMax Plus384, Molecular Devices Corp., USA). The percentage of cell growth inhibition was calculated as follow: inhibition ratio % = (Acontrol—Atreated) / Acontrol × 100%. The 50% inhibitory concentration (IC50) was defined as the concentration that reduced the absorbance of the untreated wells by 50% of the vehicle in the MTT assay.

[2] = system: fibrosarcoma cell line HT-1080; assay: MTT antiproliferative assay, HT-1080; type: cell-based; conditions: Homo sapiens, 72 h drug exposure, triplicate, read-out: Antiproliferative activity (IC50 ± SD) HT-1080
Source text: as §1, §2

[3] = system: gastric adenocarcinoma cell line SGC-7901; assay: MTT antiproliferative assay, SGC-7901; type: cell-based; conditions: Homo sapiens, 72 h drug exposure, triplicate, read-out: Antiproliferative activity (IC50 ± SD) SGC-7901
Source text: as §1, §2

Structure (SMILES) | melting point | IC50 [1] | IC50 [2] | IC50 [3]
COc1ccc(-c2c(Br)c(C)nn2-c2cc(OC)c(OC)c(OC)c2)cc1[N+](=O)[O-] [Compound 7n, 4-Bromo-3-methyl-5-(4-methoxy-3-nitrophenyl)-1-(3,4,5-trimethoxyphenyl)-1H-pyrazole] | 182 to 183 °C | > 100 µM | > 100 µM | > 100 µM
COc1cc(-c2cc(C)nn2-c2cc([N+](=O)[O-])ccc2C)cc(OC)c1OC [Compound 8d, 3-Methyl-1-(2-methyl-5-nitrophenyl)-5-(3,4,5-trimethoxyphenyl)-1H-pyrazole] | 102 to 103 °C | 48.6 ± 1.1 µM | > 100 µM | 31.1 ± 2.5 µM
COc1ccc(-c2c(C=O)c(C)nn2-c2cc(OC)c(OC)c(OC)c2)cc1O [Compound 7l, 4-Formyl-3-methyl-5-(3-hydroxy-4-methoxyphenyl)-1-(3,4,5-trimethoxyphenyl)-1H-pyrazole] | 97 to 98 °C | 45.7 ± 3.3 µM | 23.8 ± 1.8 µM | 16.4 ± 1.5 µM
COc1ccc(-c2cc(C)nn2-c2cc(OC)c(OC)c(OC)c2)cc1 [Compound 7b, 3-Methyl-5-(4-methoxyphenyl)-1-(3,4,5-trimethoxy-phenyl)-1H-pyrazole] | 118 to 119 °C | 15.2 ± 2.2 µM | 1.01 ± 0.12 µM | 0.73 ± 0.09 µM
CCCc1cc(-c2ccc(OC)c([N+](=O)[O-])c2)n(-c2cc(OC)c(OC)c(OC)c2)n1 [Compound 7q, 3-Propyl-5-(4-methoxy-3-nitrophenyl)-1-(3,4,5-trimethoxyphenyl)-1H-pyrazole] | 149 to 150 °C | > 100 µM | > 100 µM | > 100 µM
CCCc1cc(-c2ccc(OC)c(N)c2)n(-c2cc(OC)c(OC)c(OC)c2)n1 [Compound 7s, 3-Propyl-5-(3-amino-4-methoxyphenyl)-1-(3,4,5-trimethoxyphenyl)-1H-pyrazole] | 125 to 126 °C | 56.6 ± 1 µM | 23.2 ± 0.11 µM | 35.7 ± 0.08 µM
CCc1cc(-c2ccc(OC)c([N+](=O)[O-])c2)n(-c2cc(OC)c(OC)c(OC)c2)n1 [Compound 7p, 3-Ethyl-5-(4-methoxy-3-nitrophenyl)-1-(3,4,5-trimethoxyphenyl)-1H-pyrazole] | 151 to 152 °C | > 100 µM | > 100 µM | > 100 µM
COc1cc(-c2cc(C)nn2-c2cc(N)ccc2C)cc(OC)c1OC [Compound 8e, 3-Methyl-1-(5-amino-2-methylphenyl)-5-(3,4,5-trimethoxyphenyl)-1H-pyrazole] | 69 to 70 °C | 28.2 ± 1.7 µM | 11.9 ± 1.9 µM | 2.43 ± 0.09 µM
COc1cc(-n2nc(C)cc2-c2ccc(C)cc2)cc(OC)c1OC [Compound 7c, 3-Methyl-5-(4-methylphenyl)-1-(3,4,5-trimethoxy-phenyl)-1H-pyrazole] | – | 2.35 ± 0.33 µM | 1.23 ± 0.15 µM | 0.53 ± 0.2 µM
COc1cc(-c2cc(C)nn2-c2ccc(C)cc2)cc(OC)c1OC [Compound 8c, 3-Methyl-1-(4-methylphenyl)-5-(3,4,5-trimethoxy-phenyl)-1H-pyrazole] | 70 to 71 °C | 16.2 ± 1 µM | 15.6 ± 1.5 µM | 11.8 ± 1.2 µM
COc1ccc(-c2c(Br)c(C)nn2-c2cc(OC)c(OC)c(OC)c2)cc1N [Compound 7o, 4-Bromo-3-methyl-5-(3-amino-4-methoxyphenyl)-1-(3,4,5-trimethoxyphenyl)-1H-pyrazole] | 128 to 129 °C | 79.1 ± 2 µM | 15.9 ± 3.2 µM | 14.3 ± 3.1 µM
COc1ccc(-c2cc(C)nn2-c2cc(OC)c(OC)c(OC)c2)cc1F [Compound 7e, 3-Methyl-5-(3-fluoro-4-methoxyphenyl)-1-(3,4,5-trimethoxyphenyl)-1H-pyrazole] | 86 to 87 °C | 2.84 ± 0.52 µM | 5.52 ± 0.26 µM | 3.05 ± 0.33 µM
C=CCOc1cc(-n2nc(C)cc2-c2cc(OC)c(OC)c(OC)c2)ccc1OC [Compound 8h, 3-Methyl-1-(3-allyloxy-4-methoxyphenyl)-5-(3,4,5-trimethoxyphenyl)-1H-pyrazole] | 98 to 99 °C | > 100 µM | > 100 µM | > 100 µM
COc1cc(-n2nc(C)cc2-c2ccc(F)cc2)cc(OC)c1OC [Compound 7d, 3-Methyl-5-(4-fluorophenyl)-1-(3,4,5-trimethoxyphenyl)-1H-pyrazole] | 104 to 105 °C | > 100 µM | > 100 µM | 20.7 ± 1.2 µM
CCc1cc(-c2ccc(OC)c(N)c2)n(-c2cc(OC)c(OC)c(OC)c2)n1 [Compound 7r, 3-Ethyl-5-(3-amino-4-methoxyphenyl)-1-(3,4,5-trimethoxyphenyl)-1H-pyrazole] | 114 to 115 °C | 3.55 ± 0.09 µM | 8.16 ± 0.12 µM | 4.62 ± 0.09 µM
COc1ccc(-n2nc(C)cc2-c2cc(OC)c(OC)c(OC)c2)cc1O [Compound 8i, 3-Methyl-1-(3-hydroxy-4-methoxyphenyl)-5-(3,4,5-trimethoxyphenyl)-1H-pyrazole] | 167 to 168 °C | 21.8 ± 2.1 µM | 15 ± 0.9 µM | 13.7 ± 1.2 µM
COc1ccc(-n2nc(C)cc2-c2cc(OC)c(OC)c(OC)c2)cc1N [Compound 8g, 3-Methyl-1-(3-amino-4-methoxyphenyl)-5-(3,4,5-trimethoxyphenyl)-1H-pyrazole] | 56 to 57 °C | 21.4 ± 1.2 µM | 24.7 ± 2.3 µM | 21.2 ± 1.6 µM
C=CCOc1cc(-c2cc(C)nn2-c2cc(OC)c(OC)c(OC)c2)ccc1OC [Compound 7g, 3-Methyl-5-(3-allyloxy-4-methoxyphenyl)-1-(3,4,5-trimethoxyphenyl)-1H-pyrazole] | 79 to 80 °C | > 100 µM | > 100 µM | 6.45 ± 0.22 µM
COc1ccc(-n2nc(C)cc2-c2cc(OC)c(OC)c(OC)c2)cc1 [Compound 8b, 3-Methyl-1-(4-methoxyphenyl)-5-(3,4,5-trimethoxy-phenyl)-1H-pyrazole] | 67 to 68 °C | 9.39 ± 0.21 µM | 28.2 ± 1.9 µM | 19 ± 2 µM
COc1ccc(-c2cc(C)nn2-c2cc(OC)c(OC)c(OC)c2)cc1[N+](=O)[O-] [Compound 7h, 3-Methyl-5-(4-methoxy-3-nitrophenyl)-1-(3,4,5-trimethoxyphenyl)-1H-pyrazole] | 145 to 146 °C | > 100 µM | > 100 µM | 5.22 ± 0.19 µM
COc1ccc(-n2nc(C)cc2-c2cc(OC)c(OC)c(OC)c2)cc1[N+](=O)[O-] [Compound 8f, 3-Methyl-1-(4-methoxy-3-nitrophenyl)-5-(3,4,5-trimethoxyphenyl)-1H-pyrazole] | 118 to 119 °C | > 100 µM | > 100 µM | > 100 µM
C=CCOc1ccc(-c2cc(C)nn2-c2cc(OC)c(OC)c(OC)c2)cc1OC [Compound 7f, 3-Methyl-5-(4-allyloxy-3-methoxyphenyl)-1-(3,4,5-trimethoxyphenyl)-1H-pyrazole] | 78 to 79 °C | > 100 µM | > 100 µM | 23.6 ± 2.3 µM
COc1cc(-n2nc(C)cc2-c2ccccc2)cc(OC)c1OC [Compound 7a, 3-Methyl-5-phenyl-1-(3,4,5-trimethoxyphenyl)-1H-pyrazole] | 77 to 78 °C | > 100 µM | > 100 µM | > 100 µM
COc1cc(-c2cc(C)nn2-c2cc(OC)c(OC)c(OC)c2)ccc1O [Compound 7j, 3-Methyl-5-(4-hydroxy-3-methoxyphenyl)-1-(3,4,5-trimethoxyphenyl)-1H-pyrazole] | 197 to 198 °C | > 100 µM | > 100 µM | 25.9 ± 2.3 µM
COc1cc(-c2cc(C)nn2-c2ccccc2)cc(OC)c1OC [Compound 8a, 3-Methyl-1-phenyl-5-(3,4,5-trimethoxyphenyl)-1H-pyrazole] | 88 to 89 °C | > 100 µM | > 100 µM | > 100 µM
COc1ccc(-c2c(CO)c(C)nn2-c2cc(OC)c(OC)c(OC)c2)cc1O [Compound 7m, 4-Hydroxymethyl-3-methyl-5-(3-hydroxy-4-methoxy-phenyl)-1-(3,4,5-trimethoxyphenyl)-1H-pyrazole] | 166 to 167 °C | 9.04 ± 0.25 µM | 7.11 ± 0.23 µM | 8.42 ± 0.32 µM
